Like-named read-outs stand apart in the source and are kept apart here.
Key:
B/Florida/04/2006 = experiment: Antiviral activity (drug efficacy evaluation by concentration) against B/Florida/04/2006; type: cell-based, B type influenza virus
A/Perth/16/2009 (H3N2) = experiment: Antiviral activity (drug efficacy evaluation by concentration) against A/Perth/16/2009 (H3N2); type: cell-based, A type influenza virus; settings: Influenza A virus
[1] = system: A/California/07/2009 (H1N1); experiment: Antiviral activity (drug efficacy evaluation by concentration) against A/California/07/2009 (H1N1); type: cell-based, A type influenza virus; settings: Influenza A virus
[2] = read-out: EC50 B/Florida/04/2006, B/Florida/04/2006
[3] = CC50 B/Florida/04/2006, cytotoxicity in the B/Florida/04/2006 assay
[4] = H3N2, A/Perth/16/2009 (H3N2), read-out: EC50 A/Perth/16/2009 (H3N2)
[5] = H1N1, A/California/07/2009 (H1N1), read-out: EC50 A/California/07/2009 (H1N1)
[6] = CC50, third EC50/CC50 column pair (c7), beside the EC50 of c6

SMILES	EC50 (B/Florida/04/2006; [2])	CC50 (in vitro; [3])	melting point	EC50 (A/Perth/16/2009 (H3N2); [4])	EC50 [1, 5]	EC50 (B/Florida/04/2006)	CC50 (in vitro; CC50, beside the EC50 of c2)	CC50 (in vitro; CC50, beside the EC50 of c4)	CC50 (in vitro; [6])	EC50 (A/Perth/16/2009 (H3N2); H3N2, read-out: EC50)	EC50 ([1]; H1N1, read-out: EC50)
Cc1nn(Cc2nnc(SCc3ccccc3-c3ccsc3)o2)c(C)c1Br [Compound 35, 2-((4-bromo-3,5-dimethyl-1H-pyrazol-1-yl)methyl)-5-((2-(thiophen-3-yl)benzyl)thio)-1,3,4-oxadiazole]	1.88 µM	> 50 µM	86.9 °C	0.8 µM	0.7 µM	–	–	–	–	–	–
FC(F)(F)c1ccc(Cl)c(/C=C/c2nnc(Cc3cccc(Br)c3)o2)c1 [Compound 199, 2-(3-bromobenzyl)-5-(2-chloro-5-(trifluoromethyl)styryl)-1,3,4-oxadiazole]	–	–	106.9 °C	–	–	9.89 µM	> 50 µM	> 50 µM	> 50 µM	6.3 µM	8.55 µM
Cc1cccc(C)c1Nc1nnc(C(=O)c2ccccc2)o1 [Compound 76, (5-((2,6-dimethylphenyl)amino)-1,3,4-oxadiazol-2-yl)(phenyl)methanone]	> 50 µM	> 50 µM	236.1 °C	14.1 µM	14.1 µM	–	–	–	–	–	–
Fc1ccc(/C=C/c2nnc(Cc3cccc4ccccc34)o2)c(Cl)c1 [Compound 185, (E)-2-(2-chloro-4-fluorostyryl)-5-(naphthalen-1-ylmethyl)-1,3,4-oxadiazole]	–	–	152.7 °C	–	–	> 50 µM	> 50 µM	> 50 µM	> 50 µM	> 50 µM	> 50 µM
O=C(NCc1nnc(SCc2ccccc2-c2ccccc2)o1)c1ccc(Br)cc1 [Compound 51, N-((5-(([1,1′-biphenyl]-2-ylmethyl)thio)-1,3,4-oxadiazol-2-yl)methyl)-4-bromobenzamide]	6.02 µM	28.6 µM	135.4 °C	5.04 µM	4.01 µM	–	–	–	–	–	–
Fc1ccc(Cl)c(/C=C/c2nnc(Cc3cccc(Br)c3)o2)c1 [Compound 193, 2-(3-bromobenzyl)-5-(2-chloro-5-fluorostyryl)-1,3,4-oxadiazole]	–	–	97.1 °C	–	–	> 50 µM	> 50 µM	> 50 µM	> 50 µM	> 50 µM	> 50 µM
Cc1cc(C)cc(Nc2nnc(SCc3ccccc3-c3ccccc3)o2)c1 [Compound 68, 5-(([1,1′-biphenyl]-2-ylmethyl)thio)-N-(3,5-dimethylphenyl)-1,3,4-oxadiazol-2-amine]	1.83 µM	> 50 µM	232.2 °C	1.6 µM	2.77 µM	–	–	–	–	–	–
Fc1ccc(/C=C/c2nnc(Cc3ccc(Cl)nc3)o2)c(Cl)c1 [Compound 180, (E)-2-(2-chloro-4-fluorostyryl)-5-((6-chloropyridin-3-yl)methyl)-1,3,4-oxadiazole]	–	–	163 °C	–	–	0.98 µM	> 50 µM	> 50 µM	> 50 µM	0.51 µM	1.05 µM
Fc1ccc(/C=C/c2nnc(Cc3ccc(Br)c(F)c3)o2)c(Cl)c1 [Compound 184, (E)-2-(4-bromo-3-fluorobenzyl)-5-(2-chloro-4-fluorostyryl)-1,3,4-oxadiazole]	–	–	166.2 °C	–	–	> 50 µM	> 50 µM	> 50 µM	> 50 µM	> 50 µM	> 50 µM
Brc1ccc(Cc2nc(/C=C/c3ccccc3)no2)cc1 [Compound 183, (E)-5-(4-bromobenzyl)-3-styryl-1,2,4-oxadiazole]	–	–	78.4 °C	–	–	1.86 µM	> 50 µM	> 50 µM	> 50 µM	0.904 µM	1.33 µM
Cc1ccccc1CCc1nnc(Nc2ccc(Br)c(F)c2)o1 [Compound 91, N-(4-bromo-3-fluorophenyl)-5-(2-methylphenethyl)-1,3,4-oxadiazol-2-amine]	–	–	151.6 °C	–	–	19.3 µM	6.03 µM	15.7 µM	6.63 µM	8.3 µM	9.13 µM

Reference: US11149033B2, “Heteroaryl compound, enantiomer, diastereomer or pharmaceutically acceptable salt thereof, and antiviral composition containing same as active ingredient” (priority 2016, dated 2021)
